Key:
Micrococcus luteus Q24 [1] = experiment: Inhibition by potential prebiotics, spot on lawned CABK12 agar (prebiotic MIC); format: cell-based; conditions: 24 hours 37° C. 5% CO2; for Suitable to be used in Q24 containing product?: aqueous substances 100% to 0.3%, oils 100% only
Description: CABK12 agar plates were split into segments of 6 and […] suspension of Micrococcus luteus […] raw ingredient. Each of the aqueous potential prebiotic substances to be screened were serially diluted in a range of concentrations from 100% to 0.3% using sterile distilled water. Oil based substances were tested at 100% only. 20 μL of each concentration, of each substance were pipetted into a spot onto one segment of the […]12 agar plate and was incubated for 24 hours at 37° C. 5% CO2 in air.

Micrococcus luteus Q24 [2] = experiment: Effect of prebiotics on the growth of Micrococcus luteus Q24 in M17 broth; format: cell-based; conditions: at 24 hours
Description: A batch of M17 broth (Difco #218561) was made, excluding the lactose solution, by following the manufacturer's instructions. 50 ml of broth was dispensed into sterile 100 ml Schott bottles and 2.5 g (5% w/v) of each potential prebiotic substance was added and mixed well using a magnetic stirrer and stir plate. The mixtures were autoclaved at 110° C. for 10 minutes and allowed to cool.
The suspensions of the prebiotic candidates were prewarmed to 40° C. in order to allow for increased homogenisation of any oil-based components prior to dispensing into the wells. 2 ml of each suspension and an M17 only (control) were pipetted into a sterile 24 well tissue culture plate. […] 100 μl of the suspension was pipetted into each well. Once the suspension was added each well was mixed by aspirating and dispensing the solution 5 times with a 1 ml pipette.
Each sample was enumerated at time points 0, 3, 6, 15, 26 and 34 hours using the following method. […] The number of colonies in each spot were then counted using an electronic colony counter and average to give the final result.
The same method was used as described above except the time points tested were 0, 6, 18 and 24 hours. Olive squalene was selected as one of the preferred prebiotics with 3 others that were analysed in combination with olive squalene and compared to the results of the prebiotic candidates alone (FIG. 17).

IL-8 (CXCL8) = experiment: EpiDerm safety and efficacy experiment, cytokine quantification IL-8; format: cell-based, human; conditions: daily treatment 4 days; Q24 1×10^8 CFU/ml, vitamin C 50 μg/mL
Description: (§1) The remaining 6 tissues, which were destined for histology or else to receive 5% SDS, were grouped together on the sixth cell culture plate. […] Vitamin C (50 μg/mL) was instead delivered in the culture medium. On day 4 conditioned media samples were collected and stored frozen at −80° C. for cytokine measurement. 33 of the tissues were then exposed for 30 μL of 0.5% or 5% SDS in PBS, or to PBS as negative control. […] The remaining 3 tissues (destined for histology) were simply fed fresh medium and given the appropriate main treatment. […] All tissues were gently rinsed with PBS and the 3 histology tissues were fixed in neutral buffered formalin. The viabilities of the other 33 tissues were assessed using the MTT viability assay.
(§2) For quantification of IL-1β, IFN-α2, IFN-γ, TNF-α, MCP-1 (CCL2), IL-6, IL-8 (CXCL8), IL-10, IL-12p70, IL-17A, IL-18, IL-23, and IL-33, bead-based multiplex LEGENDplex™ analysis (LEGENDplex™ Human Inflammation Panel 1 (13-plex); BioLegend, San Diego, CA, USA) was used according to the manufacturer's instructions. The relevance of each of the measured cytokines for which activity was observed is described in Table 6. Reactions were performed in duplicate. Analysis was performed with the Cytek™ Aurora flow cytometer (Cytek Biosciences Inc., Fremont, CA, USA). Data were analysed via Legendplex V8.0 software (BioLegend) and specified as pg/mL.

IL-18 = experiment: EpiDerm safety and efficacy experiment, cytokine quantification IL-18; format: cell-based, human; conditions: daily treatment 4 days; Q24 1×10^8 CFU/ml, vitamin C 50 μg/mL
Description: as §1, §2

IL-6 = experiment: EpiDerm safety and efficacy experiment, cytokine quantification IL-6; format: cell-based, human
Description: as §1, §2

Molecule | Suitable to be used in Q24 containing product? (Micrococcus luteus Q24 [1]) | further results
NC(=O)NC1NC(=O)NC1=O (centres unmarked) [Allantoin] | Yes | 
CC(O)C(=O)O (centres unmarked) [Lactic acid (LA), Lactic acid] | No | Inhibitory concentration against Micrococcus luteus Q24 (Micrococcus luteus Q24 [1]): > 2.5%
NC(=O)c1cccnc1 [Niacinamide] | Yes | 
CC(C)=CCC/C(C)=C/CC/C(C)=C/CC/C=C(\C)CC/C=C(\C)CCC=C(C)C [Olive Squalene] | Yes | 
CC1=C(/C=C/C(C)=C/C=C/C(C)=C/CO)C(C)(C)CCC1 [Retinol (Vitamin A), Retinol] | Yes | 
O=C(O)c1ccccc1O [Salicylic acid (SA), Salicylic acid] | No | Inhibitory concentration against Micrococcus luteus Q24 (Micrococcus luteus Q24 [1]): > 5%
Cc1c(C)c2c(c(C)c1O)CC[C@@](C)(CCC[C@H](C)CCC[C@H](C)CCCC(C)C)O2 [Vitamin E, D Alpha Tocopherol 1000 IU, D Alpha Tocopherol] | Yes | 
OC[C@@H](O)[C@H](O)[C@@H](O)CO [Xylitol] | Yes | Effect on live Micrococcus luteus Q24 cell count (Micrococcus luteus Q24 [2]): detrimental
O=C1O[C@H]([C@@H](O)CO)C(O)=C1O [vitamin C, Ascorbic acid] | Yes | IL-8 levels day 4 vs day 0 (IL-8 (CXCL8)): unchanged; IL-18 levels day 4 vs day 0 (IL-18): trend for lower values on day 4; IL-6 levels day 4 vs day 0 (IL-6; daily treatment 4 days, Q24 1×10^8 CFU/ml, vitamin C 50 μg/mL): slight but significant increase on day 4; IL-6 released in response to 0.5% SDS (IL-6; pre-treatment 4 days, day 5 vs day 4): slight increase on day 5
Hyaluronic acid | Yes | 
